melting point: 192 to 193 °C
SMILES: Cc1c(C)c(N2CCN(c3ccnc(Cl)n3)CC2)c(C)c2c1OC(C)(C)C2 [Example 82, 2-Chloro-4-[4-(2,2,4,6,7-pentamethyl-2,3-dihydro-1-benzofuran-5-yl)piperazin-1-yl]pyrimidine]
